This is an account of results in ChEMBL document CHEMBL5036374, “2-Oxooxazolidine-5-carboxamides as Nav1.8 Inhibitors for Treating Pain Disorders, Cough Disorders, and Acute and Chronic Itch Disorders” (ACS Med Chem Lett, 2022).

The assay in a line: Inhibition of human Nav1.8 expressed in HEK293 cells assessed as sodium current flow at holding potential of -90mV by Whole cell-automated patch clamp assay. Format: cell-based. In general terms: The patch-clamp technique gives a direct electrical read-out from membranes.

Structures are written as SMILES.

With `O=C1NC[C@@H](C(=O)NC(c2ccc(F)c(Cl)c2)c2ccc(F)c(Cl)c2)O1`, the half-maximal inhibitory concentration (IC50) turned out to be 0.7 nM.
`O=C1NC[C@@H](C(=O)NC(c2ccc(Cl)cc2)c2ccc(Cl)c(C(F)(F)F)n2)O1` (stereo partly specified): the IC50 was determined as 0.6 nM.
In the case of `O=C1NC[C@@H](C(=O)NC(c2ccc(OC(F)(F)F)c(Cl)c2)c2cnn(C(F)(F)F)c2)O1` (stereo partly specified) it was 1.2 nM.
In the case of `O=C1NC[C@@H](C(=O)NC(c2ccc(Cl)cc2)c2ccc(Cl)c(C(F)(F)F)c2)O1` (stereo partly specified), the half-maximal inhibitory concentration (IC50) was determined as 0.4 nM.
Next, `Cc1cc(C(NC(=O)[C@@H]2CNC(=O)O2)c2ccc(Cl)cc2)ccc1Cl` (stereo partly specified): 0.6 nM; `O=C1NC[C@@H](C(=O)NC(c2ccc(Cl)cc2)c2ccc(F)c(Cl)c2)O1` (stereo partly specified): 0.9 nM.

The term IC50 denotes the concentration at which inhibition is half-maximal.
